Measurements published in the supplement of paper PMC11061612.

What was measured:
[1] = tested on: PANC-10-05 (Pancreatic Carcinoma); experiment: Bliss excess, mean over the matrix (fraction); higher = more synergy
How it was run: (§1)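 Cell lines in DMEM/F12 or RPMI with 10% FBS were plated in 1536-well plates, held 24 hours at 37°C, 5% CO2, then given two-drug dose matrices for 72 hours (DMSO typically 0.2%). Viability was read by CellTiter-Glo 2.0 luminescence and scaled as inhibition from 0 (vehicle wells) to 1 (blank wells). Combination Emax is the second-highest inhibition in the matrix; Bliss excess is observed combination effect minus expected EA + EB − EA·EB, EA and EB being single-agent effects.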

[2] = tested on: NCI-H2141 (Small Cell Lung Carcinoma); experiment: as above
How it was run: as §1

[3] = tested on: OS-RC-2 (Kidney Carcinoma); experiment: as above
How it was run: as §1

IGR-37 (Melanoma) = experiment: combination Emax (second highest fraction inhibited in the dose matrix, 72 h); higher = more inhibition; extreme values may be limits of the assay
How it was run: as §1

[4] = tested on: COR-L311 (Small Cell Lung Carcinoma); experiment: as above
How it was run: as §1

[5] = tested on: COLO-320-HSR (Colorectal Carcinoma); experiment: as above
How it was run: as §1

[6] = tested on: NCI-H2066 (Squamous Cell Lung Carcinoma); experiment: as above
How it was run: as §1

PA-1 (Ovarian Carcinoma) = experiment: as above
How it was run: as §1

[7] = tested on: NCI-H1581 (Non-Small Cell Lung Carcinoma); experiment: as above
How it was run: as §1

[8] = tested on: NCI-H1693 (Lung Adenocarcinoma); experiment: as above
How it was run: as §1

[9] = tested on: VCaP (Prostate Carcinoma); experiment: as above
How it was run: as §1

[10] = tested on: CAL-29 (Bladder Carcinoma); experiment: as above
How it was run: as §1

LN-405 (Glioblastoma) = experiment: as above
How it was run: as §1

[11] = tested on: MDST8 (Colorectal Carcinoma); experiment: as above
How it was run: as §1

[12] = tested on: COLO-824 (Breast Carcinoma); experiment: as above
How it was run: as §1

[13] = tested on: TT (Thyroid Gland Carcinoma); experiment: as above
How it was run: as §1

[14] = tested on: CCK-81 (Colorectal Carcinoma); experiment: as above
How it was run: as §1

[15] = tested on: SISO (Cervical Carcinoma); experiment: as above
How it was run: as §1

FU97 (Gastric Carcinoma) = experiment: as above
How it was run: as §1

[16] = tested on: KARPAS-422 (B-Cell Non-Hodgkin's Lymphoma); experiment: as above
How it was run: as §1
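Wherever Bliss excess, mean over the matrix is given: after 72 h of two-drug dosing.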

SMILES | Bliss excess [1] | Bliss excess [2] | Bliss excess [3] | combination Emax (IGR-37 (Melanoma)) | combination Emax [4] | combination Emax [5] | combination Emax [6] | combination Emax (PA-1 (Ovarian Carcinoma)) | combination Emax [7] | combination Emax [8] | combination Emax [9] | combination Emax [10] | combination Emax (LN-405 (Glioblastoma)) | combination Emax [11] | combination Emax [12] | combination Emax [13] | combination Emax [14] | combination Emax [15] | combination Emax (FU97 (Gastric Carcinoma)) | combination Emax [16]
CN(CCO)CC[C@H](CSc1ccccc1)Nc1ccc(S(=O)(=O)NC(=O)c2ccc(N3CCC([C@@H](O)c4ccccc4-c4ccc(Cl)cc4)CC3)cc2)cc1S(=O)(=O)C(F)(F)F [AZD4320] + Cn1cnc2c(F)c(Nc3ccc(Br)cc3Cl)c(C(=O)NOCCO)cc21 [Selumetinib] (first compound max 1 µM, 7x7, partner max 3 µM) | 0.0065 | -0.008 | 0.0178 | 0.885 | 1 | 0.198 | 0.71 | 0.8 | 0.4 | 0.459 | 0.208 | 0.634 | 0.646 | 0.955 | 1 | 0.781 | 0.491 | 0.304 | 0.544 | 0.875
Cc1c2c(nn1C)CSCc1cc(n(C)n1)CSc1cc(c3ccccc3c1)OCCCc1c(C(=O)O)n(C)c3c-2c(Cl)ccc13 [AZD5991] + C1CN(CCC1(C(=O)N[C@@H](CCO)C2=CC=C(C=C2)Cl)N)C3=NC=NC4=C3C=CN4 [Capivasertib] (first compound max 1 µM, 7x7, partner max 3 µM) | 0.0422 | 0.0003 | -0.0596 | 0.207 | 0.718 | 0.845 | 0.424 | 0.947 | 1 | 0.164 | 1 | 0.342 | 0.404 | 0.269 | 0.601 | 0.366 | 0.918 | 0.173 | 0.485 | 0.994
CC1(C)CCC(CN2CCN(c3ccc(C(=O)NS(=O)(=O)c4ccc(NCC5CCOCC5)c([N+](=O)[O-])c4)c(Oc4cnc5[nH]ccc5c4)c3)CC2)=C(c2ccc(Cl)cc2)C1 [Venetoclax] + C[C@@H]1COCCN1C2=NC(=NC(=C2)C3(CC3)[S@](=N)(=O)C)C4=C5C=CNC5=NC=C4 [AZD6738] (first compound max 1 µM, 7x7, partner max 10 µM) | -0.113 | 0.0202 | -0.0804 | 0.793 | 0.694 | 0.561 | 0.384 | 0.827 | 0.451 | 0.372 | 0.428 | 0.689 | 0.483 | 0.777 | 0.944 | 0.702 | 0.846 | 0.532 | 0.339 | 0.956
C=CCn1c(=O)c2cnc(Nc3ccc(N4CCN(C)CC4)cc3)nc2n1-c1cccc(C(C)(C)O)n1 [AZD1775] + O=C(c1cc(Cc2n[nH]c(=O)c3ccccc23)ccc1F)N1CCN(C(=O)C2CC2)CC1 [Olaparib] (first compound max 1 µM, partner max 10 µM) | -0.0871 | -0.0638 | -0.0981 | 0.776 | 0.587 | 0.606 | 0.377 | 0.756 | 0.568 | 0.288 | 0.631 | 0.612 | 0.176 | 0.408 | 0.685 | 0.273 | 0.894 | 0.679 | 0.281 | 0.678
C[C@@H](c1ccc2nccn2c1)n1nnc2ncc(-c3cnn(C)c3)nc21 [Savolitinib] + CC1(C)CCC(CN2CCN(c3ccc(C(=O)NS(=O)(=O)c4ccc(NCC5CCOCC5)c([N+](=O)[O-])c4)c(Oc4cnc5[nH]ccc5c4)c3)CC2)=C(c2ccc(Cl)cc2)C1 [Venetoclax] (first compound max 1 µM, 7x7, partner max 1 µM) | -0.0986 | -0.108 | -0.0854 | 0.3 | 0.525 | 0.213 | 0.195 | 0.276 | 0.135 | 0.0814 | 0.115 | 0.0725 | 0.173 | 0.176 | 0.61 | 0.173 | 0.1 | 0.0509 | 0.13 | 0.257
COc1nnc2ccc(N3CCC(c4ccc(OCCN5CCN(C)C(=O)[C@H]5C)cc4)CC3)nn12 [AZD5153] + Cn1cnc2c(F)c(Nc3ccc(Br)cc3Cl)c(C(=O)NOCCO)cc21 [Selumetinib] (first compound max 1 µM, 7x7, partner max 10 µM) | -0.0736 | -0.0277 | -0.0235 | 1 | 0.847 | 0.333 | 0.345 | 0.91 | 0.599 | 0.569 | 0.797 | 0.595 | 0.332 | 0.826 | 0.694 | 0.524 | 1 | 0.452 | 0.701 | 0.68
NC1(C(=O)N[C@@H](CCO)c2ccc(Cl)cc2)CCN(c2ncnc3[nH]ccc23)CC1 [Capivasertib] + CCN(CCO)CCCOc1ccc2c(Nc3cc(CC(=O)Nc4cccc(F)c4)[nH]n3)ncnc2c1 [AZD2811] (first compound max 10 µM, 7x7, partner max 1 µM) | -0.0943 | -0.0237 | -0.0136 | 0.371 | 0.915 | 0.174 | 0.534 | 0.918 | 0.469 | 0.36 | 0.543 | 0.452 | 0.497 | 0.511 | 0.85 | 0.544 | 0.366 | 0.477 | 0.369 | 0.531
COc1nnc2ccc(N3CCC(c4ccc(OCCN5CCN(C)C(=O)[C@H]5C)cc4)CC3)nn12 [AZD5153] + CC1(C)CCC(CN2CCN(c3ccc(C(=O)NS(=O)(=O)c4ccc(NCC5CCOCC5)c([N+](=O)[O-])c4)c(Oc4cnc5[nH]ccc5c4)c3)CC2)=C(c2ccc(Cl)cc2)C1 [Venetoclax] (first compound max 1 µM, 7x7, partner max 1 µM) | -0.119 | 0.0085 | -0.0584 | 0.65 | 0.934 | 0.442 | 0.338 | 0.862 | 0.469 | 0.514 | 0.777 | 0.327 | 0.441 | 0.324 | 0.881 | 0.596 | 0.848 | 0.33 | 0.754 | 0.948
NC1(C(=O)N[C@@H](CCO)c2ccc(Cl)cc2)CCN(c2ncnc3[nH]ccc23)CC1 [Capivasertib] + Cn1cnc2c(F)c(Nc3ccc(Br)cc3Cl)c(C(=O)NOCCO)cc21 [Selumetinib] (first compound max 10 µM, 7x7, partner max 10 µM) | 0.0147 | -0.051 | -0.0412 | 0.897 | 0.625 | 0.214 | 0.685 | 0.884 | 0.513 | 0.44 | 0.487 | 0.66 | 0.539 | 0.757 | 0.595 | 0.587 | 0.737 | 0.269 | 0.397 | 0.58
Cc1c2c(nn1C)CSCc1cc(n(C)n1)CSc1cc(c3ccccc3c1)OCCCc1c(C(=O)O)n(C)c3c-2c(Cl)ccc13 [AZD5991] + CCN(CCO)CCCOc1ccc2c(Nc3cc(CC(=O)Nc4cccc(F)c4)[nH]n3)ncnc2c1 [AZD2811] (first compound max 1 µM, 7x7, partner max 1 µM) | -0.0242 | 0.0657 | -0.0634 | 0.24 | 0.906 | 0.827 | 0.304 | 0.932 | 1 | 0.211 | 0.94 | 0.739 | 0.437 | 0.362 | 0.815 | 0.574 | 0.875 | 0.808 | 0.284 | 0.981
CN(C)CCCOc1ccc(-c2ccc3ncc4c(c3c2)n(C2CCOCC2)c(=O)n4C)cn1 [AZD0156] + CCN(CCO)CCCOc1ccc2c(Nc3cc(CC(=O)Nc4cccc(F)c4)[nH]n3)ncnc2c1 [AZD2811] (first compound max 1 µM, 7x7, partner max 1 µM) | -0.0169 | -0.0327 | -0.0312 | 0.0663 | 0.815 | 0 | 0.192 | 0.407 | 0.271 | 0.142 | 0.118 | 0.284 | 0.0969 | 0.281 | 0.818 | 0.359 | 0.159 | 0.172 | 0.188 | 0.641
Cc1cc2ncnn2cc1Nc1ncc2c(n1)n(C1CCOCC1)c(=O)n2C [AZD7648] + C=CCn1c(=O)c2cnc(Nc3ccc(N4CCN(C)CC4)cc3)nc2n1-c1cccc(C(C)(C)O)n1 [AZD1775] (first compound max 10 µM, partner max 1 µM) | -0.0429 | -0.0515 | -0.0474 | 0.674 | 0.571 | 0.744 | 0.339 | 0.706 | 0.379 | 0.323 | 0.533 | 0.618 | 0.281 | 0.513 | 0.658 | 0.475 | 0.833 | 0.577 | 0.397 | 0.784
